# Data from US20250270227A1, “CAMPTOTHECIN DERIVATIVE, AND PHARMACEUTICAL COMPOSITION AND USE THEREOF” (SIMCERE ZAIMING PHARMACEUTICAL CO., LTD., priority 2021, published 2025).
# Where two headings read alike, the source gives them in different places.
# Key:
# [1] = Metabolic stability in liver microsomes; type: in vitro ADME, mouse; conditions: for half-life at 1 μM: CD-1, mouse, microsomes
# Description: The metabolic stability of the compounds of the present disclosure in liver microsomes was determined by the following experimental method.
# • 1. Human liver microsomes (Corning 452117), Beagle dog liver microsomes (XENOTECH D1000), SD rat liver microsomes (XENOTECH R1000) and CD-1 mouse liver microsomes (XENOTECH M1000) • 2. Na2HPO4 (Tianjin Guangfu Fine Chemical Research Institute 20180130) • 3. KH2PO4 (Tianjin Guangfu Fine Chemical Research Institute 20180920) • 4. MgCl2 (Tianjin Guangfu Fine Chemical Research Institute 20191216) • 5. NADPH (Solarbio 1216C022) • 6. Positive control compound verapamil (Sigma MKBV4993V) • 7. AB Sciex API4000 liquid chromatography-mass spectrometry
# • 1. Preparation of 100 mM phosphate buffered saline (PBS): 7.098 g of Na2HPO4 was weighed, 500 mL of pure water was added and subjected to ultrasonic dissolution to obtain solution A. 3.400 g of KH2PO4 was weighed, 250 mL of pure water was added and subjected to ultrasonic dissolution to obtain solution B. Solution A was placed on a stirrer and solution B was slowly added until the pH value reached 7.4 to prepare 100 mM PBS buffer. • 2. Preparation of reaction system
# The reaction system was prepared according to the following table:
# • 3. The reaction system was placed in a 37° C. water bath and pre-incubated for 10 min. 40 μL of 10 mM NADPH solution (NADPH was dissolved in 100 mM phosphate buffer) was added to the reaction system with the final concentration of NADPH being 1 mM. 40 μL of phosphate buffer was used instead of NADPH solution as negative control. The role of the negative control was to exclude the effect of the chemical stability of the compounds themselves. • 4. 4 μL of 100 μM compound of the present disclosure and the positive control compound verapamil were added to the reaction system to initiate the reaction, with the final concentration of the compound being 1 μM. • 5. After thorough mixing on a vortex oscillator, 50 μL of the incubated sample was taken out at 0.5 min, 15 min, 30 min, 45 min and 60 min, respectively, and the reaction was stopped with 200 μL of glacial acetonitrile containing internal standard. The sample was centrifuged at 3220 g for 45 min. […]
# All the data was calculated by the Microsoft Excel software. The peak area was detected by extracting the ion chromatogram. The in vitro half-life (t1/2) of the compound was determined by performing linear fitting of the natural logarithm of elimination percent of the compound and time.
# The in vitro half-life (t1/2) was calculated by means of the slope k: […]
# The in vitro intrinsic clearance (unit: μL/min/mg protein) was calculated using the following equation: […]
# [2] = test system: human small cell lung cancer cell line NCI-H82; assay: Test 2 of anti-proliferative activity against tumor cells (Cell-Titer Glo); type: cell-based; conditions: read-out: NCI-H82 Anti-proliferative activity IC50, NCI-H82 cells, 5 days, Cell-Titer Glo
# Description: (§1) Cell culture: SK-OV-3 cells were cultured in McCoy's 5a medium containing 10% fetal bovine serum+1% penicillin-streptomycin, PA-1 cells were cultured in MEM medium containing 10% fetal bovine serum+1% MEM NEAA+1% sodium pyruvate+1% penicillin-streptomycin, NCI-H82 cells and MDA-MB-231 cells were cultured in 1640 medium containing 10% fetal bovine serum+1% penicillin-streptomycin, A549 cells were cultured in DMEM medium containing 10% fetal bovine serum+1% penicillin-streptomycin, all under conditions of 37° C. and 5% CO2. Cells in logarithmic growth phase were suitable for the experiment.
# (§2) Detection of cell proliferation activity: The inhibitory activity of the compounds on the proliferation of the five cell lines SK-OV-3, PA-1, NCI-H82, MDA-MB-231 and A549 was detected using Cell-Titer Glo reagent. SK-OV-3 cell (1000 cells per well), PA-1 cells (800 cells per well), NCI-H82 cells (5000 cells per well), MDA-MB-231 cells (3000 cells per well) and A549 cells (400 cells per well) were seeded in 96-well plates and cultured at 37° C. and 5% CO2 for 24 h. The compound to be tested was dissolved in DMSO to a concentration of 1 mM, then subjected to gradient dilution with DMSO and corresponding medium, and transferred to 96-well cell plates to a final concentration of 300 nM (initial concentration), with 3-fold dilution and a total of 9 concentration points. The cells were cultured at 37° C. and 5% CO2 for additional 5 days. The cell viability was detected by adding Cell-Titer Glo reagent.
# (§3) Additionally, a negative control group and a positive control group were provided as Bottom and Top, respectively. In the negative control group, the cells were not added, only the same volume of medium was added, and other operations were consistent with those in the experimental group; in the positive control group, the test compound was not added, only the same volume of DMSO was added, and other operations were consistent with those in the experimental group.
# (§4) Data analysis: The % compound inhibition was calculated, and fitting was performed to obtain IC50 of the compound.
# (§5) % Compound inhibition=1−100%*(Signal−Bottom)/(Top−Bottom).
# (§6) Signal represents the signal value of the experimental group, Bottom represents the average signal value of the negative control group, and Top represents the average signal value of the positive control group.
# [3] = test system: human breast cancer cell line MDA-MB-231; assay: as above; type: cell-based; conditions: Homo sapiens, MDA-MB-231, 120 h
# Description: as §1, §2, §3, §4, §5, §6
# [4] = test system: Human ovarian cancer cell line SK-OV-3; assay: as above; type: cell-based
# Description: as §1, §2, §3, §4, §5, §6
# [5] = test system: human ovarian cancer cell line PA-1; assay: as above; type: cell-based
# Description: as §1, §2, §3, §4, §5, §6
# [6] = test system: human non-small cell lung cancer cell line A549; assay: as above; type: cell-based
# Description: as §1, §2, §3, §4, §5, §6
# [7] = pH 7.4, mouse liver microsomes 0.5 mg/mL, 1 μM compound, 1 mM NADPH, 37° C., read-out: Stability in mouse liver microsomes t1/2
# [8] = read-out: MDA-MB-231 Anti-proliferative activity IC50 (nM)
# [9] = Homo sapiens, SK-OV-3, 120 h, SK-OV-3 cells, 5 days, Cell-Titer Glo, read-out: SK-OV-3 Anti-proliferative activity IC50
# [10] = Homo sapiens, PA-1, 120 h, read-out: PA-1 Anti-proliferative activity IC50 (nM), PA-1 cells, 5 days, Cell-Titer Glo
# [11] = Homo sapiens, A549, 120 h, read-out: A549 Anti-proliferative activity IC50 (nM), A549 cells, 5 days, Cell-Titer Glo
# [12] = MDA-MB-231 cells, 5 days, Cell-Titer Glo, read-out: MDA-MB-231 Anti-proliferative activity IC50
# [13] = Homo sapiens, PA-1, 120 h, PA-1 cells, 5 days, Cell-Titer Glo, read-out: PA-1 Anti-proliferative activity IC50
# [14] = Homo sapiens, SK-OV-3, 120 h, read-out: SK-OV-3 Anti-proliferative activity IC50 (nM)
SMILES,"half-life at 1 μM [1, 7]",IC50 [2],"IC50 [3, 8]","IC50 [4, 9]","IC50 [5, 10]","IC50 [6, 11]","IC50 [3, 12]","IC50 [5, 13]","IC50 [4, 14]",also measured
"CC[C@@]1(O)C(=O)OCc2c1cc1n(c2=O)Cc2c-1nc1cc3c(cc1c2CNC(=O)C(O)C1CC1)OCO3 (single isomer, unassigned) [Compound 14-P1]",72.8 min,2.2 nM,7.5 nM,2.2 nM,0.7 nM,10.2 nM,,,,
"CC[C@@]1(O)C(=O)OCc2c1cc1n(c2=O)Cc2c-1nc1cc3c(cc1c2CNC(=O)C(O)C1CC1)OCO3 (single isomer, unassigned) [Compound 14-P2]",,4.7 nM,,,,,8.8 nM,,,"Stability in mouse liver microsomes t1/2 ([1]; mouse liver microsomes 0.5 mg/mL, 1 μM compound, 1 mM NADPH, 37° C.): 65.0 min; IC50 ([4]; SK-OV-3 cells, 5 days, Cell-Titer Glo, read-out: SK-OV-3 Anti-proliferative activity IC50): 3.2 nM; IC50 ([5]; read-out: PA-1 Anti-proliferative activity IC50, PA-1 cells, 5 days, Cell-Titer Glo): 0.9 nM; IC50 ([6]; read-out: A549 Anti-proliferative activity IC50, A549 cells, 5 days, Cell-Titer Glo): 14.3 nM"
"CC[C@@]1(O)C(=O)OCc2c1cc1n(c2=O)Cc2c-1nc1cc3c(c(F)c1c2CNC(=O)[C@@H](O)C1CC1)OCO3 (single isomer, unassigned) [Compound 37-P1]",,,,2.1 nM,,,13.2 nM,0.9 nM,,"half-life at 1 μM ([1]; pH 7.4): 134 min; IC50 ([6]; Homo sapiens, A549, 120 h, A549 cells, 5 days, Cell-Titer Glo, read-out: A549 Anti-proliferative activity IC50): 9.1 nM"
"CC[C@@]1(O)C(=O)OCc2c1cc1n(c2=O)Cc2c-1nc1cc3c(cc1c2CNC(=O)C(O)C1CC1)OCO3 (stereo partly drawn) [Compound 14, 2-cyclopropyl-N-(((S)-7-ethyl-7-hydroxy-8,11-dioxo-7,8,11,13-tetrahydro-10H-[1,3]dioxolo[4,5-g]pyrano[3′,4′:6,7]indolizino[1,2-b]quinolin-14-yl)methyl)-2-hydroxyacetamide]",,,,,,9.7 nM,10.4 nM,1 nM,3 nM,"IC50 ([2]; Homo sapiens, 120 h): 3.9 nM"
"[2H]C1([2H])Oc2cc3nc4c(c(CNC(=O)C(O)C5CC5)c3cc2O1)Cn1c-4cc2c(c1=O)COC(=O)[C@]2(O)CC (stereo partly drawn) [Compound 39, 2-cyclopropyl-N-(((S)-7-ethyl-7-hydroxy-8,11-dioxo-7,8,11,13-tetrahydro-10H-[1,3]dioxolo[4,5-g]pyrano[3′,4′:6,7]indolizino[1,2-b]quinolin-14-yl-2,2-d2)methyl)-2-hydroxyacetamide]",268 min,,26.4 nM,,1.5 nM,19.1 nM,,,2.6 nM,
